This passage reports IC50 results from patent publication US20220274979A1 (Bayer Pharma Aktiengesellschaft, priority 2018, published 2022).

Test [1] addresses T1, hK-RasG12C - hSOS1 interaction (Homo sapiens, UniProt Q07889).
T1 construct: hSOS1 (amino acid 564-1049); made in house; host or cells: E. coli BL21 (DE3)
T1 sequence (Q07889 with tags, fused parts or gaps): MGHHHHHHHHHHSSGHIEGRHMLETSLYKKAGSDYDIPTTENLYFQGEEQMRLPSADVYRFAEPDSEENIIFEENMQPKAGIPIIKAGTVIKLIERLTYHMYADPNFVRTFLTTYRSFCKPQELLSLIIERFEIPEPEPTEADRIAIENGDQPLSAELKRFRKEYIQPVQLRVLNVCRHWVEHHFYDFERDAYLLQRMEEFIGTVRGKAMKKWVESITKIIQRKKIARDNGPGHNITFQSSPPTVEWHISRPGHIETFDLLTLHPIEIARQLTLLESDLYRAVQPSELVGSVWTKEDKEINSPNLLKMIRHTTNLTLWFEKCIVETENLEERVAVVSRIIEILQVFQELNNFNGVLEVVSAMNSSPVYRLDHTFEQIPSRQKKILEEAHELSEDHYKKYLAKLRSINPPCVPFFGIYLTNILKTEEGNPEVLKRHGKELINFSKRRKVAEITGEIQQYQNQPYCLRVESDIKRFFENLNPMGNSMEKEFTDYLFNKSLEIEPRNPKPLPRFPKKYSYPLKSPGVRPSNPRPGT
Kind of test: Biochemical Assay 1: hK-RasG12C interaction assay with hSOS1 (HTRF). The class given is binding. The settings on record: values expressed as IC50. An outline of the steps: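 HTRF signal between GST-hK-RasG12C (10 nM working solution, anti-GST-Eu) and His-hSOS1 (20 nM working solution, anti-6His-XL665) was read in HEPES pH 7.4 buffer with 10 mM EDTA, 1 mM DTT and 100 mM KF at 20 °C.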

Test [2] addresses T2, hSOS1 (hSOS1-mediated nucleotide exchange of hK-RasG12C) (Homo sapiens, UniProt Q07889).
T2 construct: hSOS1 (amino acid 564-1049); made in house; host or cells: E. coli BL21 (DE3)
T2 sequence (Q07889 with tags, fused parts or gaps): T1 sequence (Q07889 with tags, fused parts or gaps)
Kind of test: Biochemical Assay 2: hK-RasG12C activation assay by hSOS1 at high GTP concentration (HTRF nucleotide exchange). To be noted: high GTP (50 μM GTP).

Take `Cc1nc(N[C@H](C)c2cccc(Br)c2)c2cc(NCCn3ccnc3)ncc2n1` [Example 84, N4-[(1R)-1-(3-bromophenyl)ethyl]-N6-[2-(1H-imidazol-1-yl)ethyl]-2-methylpyrido[3,4-d]pyrimidine-4,6-diamine]: the IC50 in test [1] was 513 nM; in test [2], 1030 nM.
The corresponding values for `Cc1nc(NC(C)c2ccc(-c3ccccc3CN(C)C)s2)c2cc(NCC3CCNC(=O)C3)ncc2n1` (stereo not shown) [Example 86, 4-{[(4-{[1-(5-{2-[(dimethylamino)methyl]phenyl}thiophen-2-yl)ethyl]amino}-2-methylpyrido[3,4-d]pyrimidin-6-yl)amino]methyl}piperidin-2-one] are 119 nM and 127 nM.
The like results for `Cc1nc(NC(C)c2ccc(-c3ccccc3CN(C)C)s2)c2cc(N3CC(NC(=O)CCCn4c(-c5ccccn5)nc(C)c4C)C3)ncc2n1` (stereo not shown) [Example 87, N-[1-(4-{[1-(5-{2-[(dimethylamino)methyl]phenyl}thiophen-2-yl)ethyl]amino}-2-methylpyrido[3,4-d]pyrimidin-6-yl)azetidin-3-yl]-4-[4,5-dimethyl-2-(pyridin-2-yl)-1H-imidazol-1-yl]butanamide] were, in that order, 71 nM and 240 nM.
In the case of `Cc1nc(NC(C)c2ccc(-c3ccccc3CN(C)C)s2)c2cc(N3CC(NC(=O)c4ccccc4)C3)ncc2n1` (stereo not shown) [Example 88, N-[1-(4-{[1-(5-{2-[(dimethylamino)methyl]phenyl}thiophen-2-yl)ethyl]amino}-2-methylpyrido[3,4-d]pyrimidin-6-yl)azetidin-3-yl]benzamide], the IC50 was determined as 59.5 nM in test [1] and 161 nM in test [2].
With `Cc1nc(NC(C)c2ccc(-c3ccccc3CN(C)C)s2)c2cc(N3CC(NC(=O)Cc4ccccc4)C3)ncc2n1` (stereo not shown) [Example 89, N-[1-(4-{[1-(5-{2-[(dimethylamino)methyl]phenyl}thiophen-2-yl)ethyl]amino}-2-methylpyrido[3,4-d]pyrimidin-6-yl)azetidin-3-yl]-2-phenylacetamide], the results for the IC50 in test [1] and in test [2] were 44.4 nM and 111 nM, respectively.
The like results for `Cc1nc(NC(C)c2ccc(-c3ccccc3CN(C)C)s2)c2cc(N3CC(NC(=O)C4CCCCC4)C3)ncc2n1` (stereo not shown) [Example 90, N-[1-(4-{[1-(5-{2-[(dimethylamino)methyl]phenyl}thiophen-2-yl)ethyl]amino}-2-methylpyrido[3,4-d]pyrimidin-6-yl)azetidin-3-yl]cyclohexanecarboxamide] were, in that order, 63 nM and 154 nM.
The like results for `Cc1nc(NC(C)c2ccc(-c3ccccc3CN(C)C)s2)c2cc(N3CC(NC(=O)CC4CC4)C3)ncc2n1` (stereo not shown) [Example 91, 2-cyclopropyl-N-[1-(4-{[1-(5-{2-[(dimethylamino)methyl]phenyl}thiophen-2-yl)ethyl]amino}-2-methylpyrido[3,4-d]pyrimidin-6-yl)azetidin-3-yl]acetamide] were, in that order, 55.1 nM and 137 nM.
As for `Cc1nc(NC(C)c2ccc(-c3ccccc3CN(C)C)s2)c2cc(N3CC(N)C3)ncc2n1` (stereo not shown) [Example 93, 6-(3-aminoazetidin-1-yl)-N-[1-(5-{2-[(dimethylamino)methyl]phenyl}thiophen-2-yl)ethyl]-2-methylpyrido[3,4-d]pyrimidin-4-amine], the figures for the IC50 in test [1] and in test [2] were 33.5 nM and 69.2 nM, respectively.
Regarding `Cc1nc(NC(C)c2ccc(-c3ccccc3CN(C)C)s2)c2cc(N3CC(NS(=O)(=O)c4ccccc4)C3)ncc2n1` (stereo not shown) [Example 94, N-[1-(4-{[1-(5-{2-[(dimethylamino)methyl]phenyl}thiophen-2-yl)ethyl]amino}-2-methylpyrido[3,4-d]pyrimidin-6-yl)azetidin-3-yl]benzenesulfonamide], the results for the IC50 in test [1] and in test [2] were 57.2 nM and 163 nM, respectively.
The like results for `Cc1nc(NC(C)c2ccc(-c3ccccc3CN(C)C)s2)c2cc(N3CC(NS(=O)(=O)Cc4ccccc4)C3)ncc2n1` (stereo not shown) [Example 95, N-[1-(4-{[1-(5-{2-[(dimethylamino)methyl]phenyl}thiophen-2-yl)ethyl]amino}-2-methylpyrido[3,4-d]pyrimidin-6-yl)azetidin-3-yl]-1-phenylmethanesulfonamide] were, in that order, 107 nM and 240 nM.
On to `Cc1nc(NC(C)c2ccc(-c3ccccc3CN(C)C)s2)c2cc(N3CC(NC(=O)Nc4ccccc4)C3)ncc2n1` (stereo not shown) [Example 96, 1-[1-(4-{[1-(5-{2-[(dimethylamino)methyl]phenyl}thiophen-2-yl)ethyl]amino}-2-methylpyrido[3,4-d]pyrimidin-6-yl)azetidin-3-yl]-3-phenylurea], for which the IC50 is 76.6 nM in test [1] and 226 nM in test [2].
